Test results as given in patent US20240041042A1, “1-(PYRIDYL)-5-AZINYLPYRAZOLE DERIVATIVES, AND THEIR USE FOR CONTROL OF UNDESIRED PLANT GROWTH” (Bayer Aktiengesellschaft, priority 2020, published 2024).
Like-named read-outs stand apart in the source and are kept apart here.

Experiments:
Assay type in all cases: in vivo
[1] = system: Alopecurus myosuroides (ALOMY); experiment: Pre-emergence herbicidal action against ALOMY; settings: scored visually after about 3 weeks, 100% = plants have died
Method in brief: (§1)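 Herbicide applied to soil before seedling emergence, at 600 l/ha spray volume with 0.5% additive and rates up to 320 g/ha. Evaluation: visual percentage effect, about 3 weeks later, greenhouse-grown pots compared with untreated ones.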

[2] = system: Amaranthus retroflexus (AMARE); experiment: Pre-emergence herbicidal action against AMARE; settings: visual scoring after about 3 weeks vs untreated controls
Method in brief: as §1

[3] = system: Avena fatua (AVEFA); experiment: Pre-emergence herbicidal action against AVEFA; settings: 320 g/ha, visual scoring after about 3 weeks vs untreated controls
Method in brief: as §1

[4] = system: Digitaria sanguinalis (DIGSA); experiment: Pre-emergence herbicidal action against DIGSA
Method in brief: as §1

[5] = system: Echinochloa crus-galli (ECHCG); experiment: Pre-emergence herbicidal action against ECHCG; settings: dosage 320 g/ha
Method in brief: as §1

[6] = system: Lolium rigidum (LOLRI); experiment: Pre-emergence herbicidal action against LOLRI; settings: dosage 320 g/ha
Method in brief: as §1

[7] = system: Matricaria inodora (MATIN); experiment: Pre-emergence herbicidal action against MATIN; settings: dosage 320 g/ha
Method in brief: as §1

[8] = system: Pharbitis purpurea (PHBPU); experiment: Pre-emergence herbicidal action against PHBPU
Method in brief: as §1

[9] = system: Polygonum convolvulus (POLCO); experiment: Pre-emergence herbicidal action against POLCO; settings: dosage 320 g/ha
Method in brief: as §1

[10] = system: Setaria viridis (SETVI); experiment: Pre-emergence herbicidal action against SETVI
Method in brief: as §1

[11] = system: Verconica persica (VERPE); experiment: Pre-emergence herbicidal action against VERPE; settings: dosage 320 g/ha
Method in brief: as §1

[12] = system: Viola tricolor (VIOTR); experiment: Pre-emergence herbicidal action against VIOTR
Method in brief: as §1

[13] = system: Oryza sativa (ORYSA); settings: pre-emergence, 80 g/ha, crop plant compatibility, in comparison to untreated controls
Method in brief: (§2)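 Scoring: visual, % of untreated control, about 3 weeks after a pre-emergence application to the soil surface. Application used WP or EC formulations diluted in water with 0.5% additive at 600 l/ha; dosage levels are marked by suffixes a, b and c.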

[14] = system: Abutilon theophrasti (ABUTH); experiment: Post-emergence herbicidal action against ABUTH; settings: 320 g/ha, visual rating about 3 weeks after treatment vs untreated controls (100% = plants have died, 0% = like control plants)
Method in brief: (§3)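 Rates were 320 g/ha or below, applied as aqueous WP/EC spray with 0.5% additive (600 l/ha) onto one-leaf-stage plants. About 3 weeks later in the greenhouse, damage was scored visually against untreated plants on a 0–100% scale, where 100% means plants died.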

[15] = system: Alopecurus myosuroides (ALOMY); experiment: Post-emergence herbicidal action against ALOMY; settings: visual rating about 3 weeks after treatment vs untreated controls (100% = plants have died, 0% = like control plants)
Method in brief: as §3

[16] = system: Avena fatua (AVEFA); experiment: Post-emergence herbicidal action against AVEFA; settings: 320 g/ha, visual rating about 3 weeks after treatment
Method in brief: as §3

[17] = system: Digitaria sanguinalis (DIGSA); experiment: Post-emergence herbicidal action against DIGSA; settings: visual rating about 3 weeks after treatment
Method in brief: as §3

[18] = system: Echinochloa crus-galli (ECHCG); experiment: Post-emergence herbicidal action against ECHCG
Method in brief: as §3

[19] = system: Lolium rigidum (LOLRI); experiment: Post-emergence herbicidal action against LOLRI; settings: dosage 320 g/ha
Method in brief: as §3

[20] = system: Pharbitis purpurea (PHBPU); experiment: Post-emergence herbicidal action against PHBPU
Method in brief: as §3

[21] = system: Setaria viridis (SETVI); experiment: Post-emergence herbicidal action against SETVI
Method in brief: as §3

[22] = system: Verconica persica (VERPE); experiment: Post-emergence herbicidal action against VERPE
Method in brief: as §3

[23] = system: Oryza sativa (ORYSA); settings: crop plant compatibility
Method in brief: (§4)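 Percent effect on the crop was judged by eye against untreated controls, where 0% means like control and 100% means dead plants. Plants had been sprayed post-emergence at the one-leaf stage and then kept under optimum greenhouse conditions for about 3 weeks.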

[24] = system: Zea mays (ZEAMX); settings: pre-emergence, 80 g/ha, crop plant compatibility, in comparison to untreated controls
Method in brief: as §2

[25] = system: Amaranthus retroflexus (AMARE); experiment: Post-emergence herbicidal action against AMARE; settings: 80 g/ha, visual rating about 3 weeks after treatment vs untreated controls (100% = plants have died, 0% = like control plants)
Method in brief: as §3

[26] = system: Polygonum convolvulus (POLCO); experiment: Post-emergence herbicidal action against POLCO; settings: dosage 80 g/ha
Method in brief: as §3

[27] = system: Zea mays (ZEAMX); settings: 20 g/ha, ZEAMX, effect in comparison to untreated controls
Method in brief: as §4

[28] = system: Viola tricolor (VIOTR); experiment: Post-emergence herbicidal action against VIOTR; settings: 80 g/ha
Method in brief: as §3

[29] = 80 g/ha, visual scoring after about 3 weeks vs untreated controls
[30] = 80 g/ha, effect in comparison to untreated controls
[31] = 20 g/ha, effect vs untreated controls

Row | Pre-emergence action against ORYSA in % [13] | Post-emergence action against ORYSA in % [23, 30] | Compound | Pre-emergence action against ALOMY ([1]; 80 g/ha) | Pre-emergence action against ALOMY ([1]; 320 g/ha) | Pre-emergence action against AMARE in % ([2]; 80 g/ha) | Pre-emergence action against AMARE in % ([2]; 320 g/ha) | Pre-emergence action against AVEFA in % [3] | Pre-emergence action against DIGSA in % [4, 29] | Pre-emergence action against DIGSA in % ([4]; dosage 320 g/ha) | Pre-emergence action against ECHCG in % [5] | Pre-emergence action against LOLRI in % [6] | Pre-emergence action against MATIN in % [7] | Pre-emergence action against PHBPU in % ([8]; dosage 320 g/ha) | Pre-emergence action against POLCO in % [9] | Pre-emergence action against SETVI in % ([10]; dosage 80 g/ha) | Pre-emergence action against SETVI in % ([10]; dosage 320 g/ha) | Pre-emergence action against VERPE in % [11] | Pre-emergence action against VIOTR in % ([12]; 320 g/ha, Viola tricolor) | Post-emergence action against ALOMY in % ([15]; 80 g/ha) | Post-emergence action against VERPE in % ([22]; dosage 80 g/ha) | other results
1 | 10% | 20% | C#CCOC(=O)COc1nn(-c2ccccn2)c(-c2ccc(F)nc2)c1Br [Example I-360] | 100% | 100% | 90% | 100% | 90% | 90% | 100% | 100% | 100% | 90% | 90% | 100% | 90% | 100% | 90% | 100% | 90% | 80% | Pre-emergence action against PHBPU in % ([8]; dosage 80 g/ha): 80%; Post-emergence action against ABUTH in % [14]: 80%; Post-emergence action against ALOMY in % ([15]; 320 g/ha): 90%; Post-emergence action against AVEFA in % [16]: 80%; Post-emergence action against DIGSA in % ([17]; 80 g/ha): 80%; Post-emergence action against DIGSA in % ([17]; 320 g/ha): 80%; Post-emergence action against ECHCG in % ([18]; dosage 80 g/ha): 80%; Post-emergence action against ECHCG in % ([18]; dosage 320 g/ha): 80%; Post-emergence action against LOLRI in % [19]: 90%; Post-emergence action against PHBPU in % ([20]; dosage 80 g/ha): 80%; Post-emergence action against PHBPU in % ([20]; dosage 320 g/ha): 80%; Post-emergence action against SETVI in % ([21]; dosage 80 g/ha): 80%; Post-emergence action against SETVI in % ([21]; dosage 320 g/ha): 80%; Post-emergence action against VERPE in % ([22]; 320 g/ha, VERPE): 80%
2 | 0% | 0% | O=C(O)COc1nn(-c2ccccn2)c(-c2ccnc(F)c2)c1Br [Example I-122] | 80% | 100% | 80% | 100% | 90% | 100% | 100% | 100% | 100% | 80% | 90% | 80% | 100% | 100% | 100% | 100% |  | 80% | Pre-emergence action against VIOTR in % ([12]; dosage 80 g/ha): 100%; Pre-emergence action against ZEAMX in % [24]: 0%; Post-emergence action against AMARE in % [25]: 90%; Post-emergence action against POLCO in % [26]: 90%; Post-emergence action against ORYSA in % [23, 31]: 0%; Post-emergence action against ZEAMX in % (crop plant compatibility) [27]: 0%
3 | 0% | 0% | CCOC(=O)COc1nn(-c2ccccn2)c(-c2ccc(F)nc2)c1I [Example I-121] |  | 100% | 100% | 100% | 90% | 100% | 100% | 100% | 100% | 80% |  | 100% |  | 100% | 100% | 100% | 80% | 80% | Post-emergence action against DIGSA in % ([17]; 80 g/ha): 80%; Post-emergence action against ECHCG in % ([18]; dosage 80 g/ha): 80%; Post-emergence action against POLCO in % [26]: 80%; Post-emergence action against VIOTR in % [28]: 80%; Post-emergence action against ORYSA in % [23, 31]: 0%
